Test results published in US20220281860A1, “COMPOUNDS AND METHODS OF TREATING RNA-MEDIATED DISEASES” (Arrakis Therapeutics, Inc., priority 2016, published 2022).

Tested on: RNA3WJ_0.0.0_5IB_3FAM
Experiment: Ligand observed NMR binding assay (WaterLOGSY, STD)
Conditions: 10 μM RNA3WJ_0.0.0_5IB_3FAM +/− 200 compound
Procedure: Purpose: Test direct binding of compounds for RNA three way junction (3WJ). This ligand observed NMR assay is used to test direct binding of compounds to an RNA target, for example a 38 nt synthetic RNA 3WJ and others as described below. Ligand observed assay was used for hit validation studies of single compounds. Established experiments were eventually used to perform group epitope mapping, described below.
Sample buffer: 10 mM Cacodylate, pH 7.1; 0.68 g [MW: 137.99 g/mol]; fill up to 500 ml with Millipore H2O.
Compound Stocks: Tool compounds provided as dry powder were prepared as 50 mM stock solution in 100% d6-DMSO. […]
Proton 900 pulse is determined and water resonance frequency is adjusted to ensure maximal water suppression. The determined values are transferred to the NMR experiments that will be recorded for the respective sample. […]
Python scripts are used to process all recorded spectra in the assay setup, screening and deconvolution process.
Spectra were analyzed for direct binding signals of the compounds. […]
ARK0000013 was also tested in the NMR binding assay. Test Sample: 10 μM RNA3WJ_0.0.0_5IB_3FAM+/−200 Ark000013. ^1H 1D Watergate & WaterLOGSY spectra recorded of Ark000013 were used as a reference (Note: aromatic signals observed between 7.4-7.9 ppm and due to symmetry of the center triptycene scaffold all 9 protons are magnetically equivalent).

CN(CCCN)CCCNC(=O)c1ccc2c(c1)C1c3cc(C(=O)NCCCN(C)CCCN)ccc3C2c2ccc(C(=O)NCCCN(C)CCCN)cc21 [Ark0000013, N^2,N^7,N^15-tris(3-((3-aminopropyl)(methyl)amino)propyl)-9,10-dihydro-9,10-[1,2]benzenoanthracene-2,7,15-tricarboxamide]
STD signals: small signals that were sufficient to qualitatively confirm binding
